Numbering of substitutions follows the chain as printed. Read-outs that look alike come from different tables or passages of the source.
Experiments:
[1] = system: HeLa cells; assay: Time-lapse microscopy, time in mitosis and mitotic defects, HeLa; format: cell-based; conditions: 0.6 μM CCT251455
Experimental: (§1) For analysis by immunofluorescence, cells were fixed in 1% formaldehyde for 5 min at room temperature, quenched in glycine, washed in PBS-Triton X-100 (0.1% PBS-T) and incubated for 1 hour in primary antibodies in PBS-T: MAD2 (Bethyl Laboratories Inc., A300-301A), CDC2020 (Millipore, MAB3775), MPS1 (Millipore, 05-682), MPS1 pT33pS37 (Life Technologies, 44-1325G) and ACA (ImmunoVision, HST-0100). After PBS-T washes, cells were incubated with fluorescent-conjugated secondary antibodies (Life Technologies), stained with DAPI (Life Technologies) and mounted onto slides with Vectashield (Vector Labs). Images were acquired using a Zeiss LSM 710 confocal microscope and processed using Velocity 3D Image analysis software (PerkinElmer). Time-lapse micrscopy was performed in 96-well Ibidi plate (Thistle Scientific) using a Diaphot inverted microscope (Nikon), in a humidified CO2 chamber at 37° C., using a motorized stage (Prior Scientific), controlled by Simple PCI software (Compix).

[2] = system: parental HCT116 cells; assay: Flow cytometry cell cycle profiles, parental HCT116; format: cell-based, human
Experimental: Cells were fixed overnight at −20° C. in 70% ethanol, washed in PBS, then incubated in 10 μg/ml propidium iodide and 0.5% RNase (Sigma) for 30 min and then analysed using LSRII flow cytometer (BD Biosciences).

[3] = system: taxol or nocodazole-induced SAC; assay: Abrogation of taxol or nocodazole-induced SAC (mitotic index, MPM2 staining and flow cytometry); format: cell-based; conditions: within 1 hour following inhibitor treatment; 0.6 μM CCT251455
Experimental: (§2) Cells were fixed overnight at −20° C. in 70% ethanol, washed in PBS, then incubated in 10 μg/ml propidium iodide and 0.5% RNase (Sigma) for 30 min and then analysed using LSRII flow cytometer (BD Biosciences). To stain for mitosis, cells were incubated for 1 hour at 4° C. with anti-MPM2 antibodies (Millipore, 05-368), then 1 hour at 4° C. with FITC-conjugated secondary antibodies (Life technology).

[4] = system: kinetochore localisation of SAC proteins in HeLa cells; assay: Immunofluorescence of kinetochore proteins in HeLa cells; format: cell-based
Experimental: as §1

[5] = molecular target: T1, recombinant full-length wild-type MPS1 (Homo sapiens, UniProt P33981); assay: Recombinant MPS1 kinase assay (electrophoretic mobility shift), WT; format: biochemical; conditions: mean ± SD, quadruplicate
T1 construct: For protein expression of full-length MPS1 proteins, Sf9 insect cells were grown at 27° C; made in house; host or cells: Sf9 insect cells (baculovirus, modified pFastBac1)
T1 sequence (P33981 1-857): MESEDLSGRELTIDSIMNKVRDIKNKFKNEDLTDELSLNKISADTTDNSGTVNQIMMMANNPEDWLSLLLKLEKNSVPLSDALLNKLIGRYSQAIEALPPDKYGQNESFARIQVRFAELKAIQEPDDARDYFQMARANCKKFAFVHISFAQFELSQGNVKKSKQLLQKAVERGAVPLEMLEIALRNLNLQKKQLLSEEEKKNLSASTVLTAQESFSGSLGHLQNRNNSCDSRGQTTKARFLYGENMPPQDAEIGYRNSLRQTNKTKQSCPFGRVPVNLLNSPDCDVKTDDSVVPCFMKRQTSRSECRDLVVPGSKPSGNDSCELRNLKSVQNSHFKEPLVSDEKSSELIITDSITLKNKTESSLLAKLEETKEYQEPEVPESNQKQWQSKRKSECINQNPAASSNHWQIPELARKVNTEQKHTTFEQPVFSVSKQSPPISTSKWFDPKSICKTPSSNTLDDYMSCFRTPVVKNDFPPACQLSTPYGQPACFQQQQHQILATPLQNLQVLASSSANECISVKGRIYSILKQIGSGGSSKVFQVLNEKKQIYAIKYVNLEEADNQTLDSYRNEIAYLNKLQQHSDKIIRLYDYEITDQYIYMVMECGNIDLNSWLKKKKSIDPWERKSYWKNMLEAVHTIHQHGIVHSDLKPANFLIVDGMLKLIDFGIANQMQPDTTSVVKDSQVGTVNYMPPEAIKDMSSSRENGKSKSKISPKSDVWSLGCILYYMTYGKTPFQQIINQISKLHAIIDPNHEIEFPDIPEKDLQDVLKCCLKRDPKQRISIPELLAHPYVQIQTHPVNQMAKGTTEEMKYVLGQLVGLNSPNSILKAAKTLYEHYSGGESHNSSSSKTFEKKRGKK
Experimental: (§3) For high ATP concentration assays, 1 mM ATP was used. An ECHO® 550 (Labcyte Inc) acoustic dispenser was used to generate duplicate 8 point dilution curves directly into 384-well low-volume polystyrene assay plates (Corning Life Sciences). The reaction was carried out for 90 min at room temperature.

[6] = molecular target: T2, recombinant full-length MPS1 p.C604W (Homo sapiens, UniProt P33981, C604W); assay: Recombinant MPS1 kinase assay (electrophoretic mobility shift), p.C604W; format: biochemical; conditions: C604W, mean ± SD, quadruplicate
T2 construct: made in house; host or cells: Sf9 insect cells (baculovirus, modified pFastBac1)
T2 sequence (P33981 1-857 C604W): T1 sequence (P33981 1-857) with C604W
Experimental: as §3

[7] = system: NvR12 HCT116 cells (p.C604W); assay: Flow cytometry cell cycle profiles, NvR12; format: cell-based, human; conditions: NvR12, 24 hours
Experimental: as §2

[8] = ATP at Km, read-out: IC50 values at ATP Km
[9] = IC50 values at 1 mM ATP, 1 mM ATP

SMILES: Cn1cc(-c2cc3cnc(Nc4ccc(-c5cncn5C)cc4Cl)cc3n2C(=O)OC(C)(C)C)cn1 [CCT251455, Tert-Butyl 6-(2-Chloro-4-(1-methyl-1H-imidazol-5-yl)phenylamino)-2-(1-methyl-1H-pyrazol-4-yl)-1H-pyrrolo[3,2-c]pyridine-1-carboxylate]
- cells with unaligned chromosomes [1]: 98%
- time to exit mitosis [1]: ~17 min
- concentration at which cell cycle profiles were abolished ([2]; HCT116, 24 hour treatment): 0.32 µM
- cells that had exited mitosis [3]: ~100%
- MPS1 kinetochore localisation ([4]; 0.6 μM CCT251455): increased
- MPS1 pT33/S37 and pT676 signals ([4]; 0.6 μM CCT251455): no longer visible
- kinetochore recruitment of BUB1 and BUBR1 ([4]; 0.6 μM CCT251455): reduced, but still visible by microscopy
- kinetochore recruitment of MAD2, MAD1, ZW10 and CDC20 ([4]; 0.6 μM CCT251455): severely inhibited
- kinetochore localisation of ZWINT-1, CENP-E, CENP-F and CENP-A pS7 ([4]; controls): remained unaffected

SMILES: Cc1ncc(-c2ccc(Nc3cc4c(cn3)cc(-c3cnn(C)c3)n4C(=O)OC(C)C)cc2)n1C [Compound 2, Isopropyl 6-(4-(1,2-dimethyl-1H-imidazol-5-yl)-2-phenylamino)-2-(1-methyl-1H-pyrazol-4-yl)-1H-pyrrolo[3,2-c]pyridine-1-carboxylate]
- IC50 [5, 8]: 3.3 ± 1.1 nM
- IC50 [5, 9]: 60 ± 20 nM
- IC50 [6, 8]: 13.3 ± 2.9 nM
- IC50 [6, 9]: 16.3 ± 4 nM
- concentration causing loss of cell cycle profiles [7]: 100 nM
- concentration causing loss of cell cycle profiles ([2]; parental, 24 hours): 600 nM

From patent US20180112258A1, “MEDICAL USES AND METHODS FOR TREATING CANCER USING MONOPOLAR SPINDLE 1 (MPS1) KINASE INHIBITORS” (THE INSTITUTE OF CANCER RESEARCH: ROYAL CANCER HOSPITAL, priority 2015, published 2018)
